Experimental data from patent US20120323009A1, “PRODUCTION METHOD OF REDUCED PYRROLOQUINOLINE QUINONE” (MITSUBISHI GAS CHEMICAL COMPANY, INC., priority 2010, published 2012).

Tests used:
[1] = Storage test of reduced PQQ (oxidation to oxidized PQQ); assay type: physicochemical
Method: In Examples and Comparative Examples, the UV measurements were performed on a HITACHI U-2000 Spectrophotometer.
In 500 g of water, […] of pyrroloquinoline quinone disodium was dissolved to a concentration of 0.01 mol/L. In 100 g of water, 3.51 g of L-ascorbic acid was dissolved to a concentration of 0.2 mol/L.
20 g of the pyrroloquinoline quinone disodium solution mentioned above having a concentration of 0.01 mol/L (pH 3.5) was mixed with 20 g of an L-ascorbic acid solution having a concentration of 0.2 mol/L at room temperature. The molar ratio of L-ascorbic acid is 20 with respect to pyrroloquinoline quinone. The pH of the solution was 2 as measured with a pH test strip. The mixed solution was allowed to react at room temperature overnight (pH 2). After the reaction, a solid of the reduced form was precipitated. Under this condition, it is believed that at least 15-fold moles of L-ascorbic acid is present, even allowing for the amounts consumed in the reduction reaction and in air oxidization.
The solid of the reduced form obtained in Example 6 was separated through centrifugation. The supernatant was removed, and the solid was washed with water. This process removed L-ascorbic acid. An aqueous sodium hydroxide solution was added thereto to adjust the value of pH to 7. All the reduced form was converted to the oxidized form in 30 minutes.
1 g of a pyrroloquinoline quinone disodium solution having a concentration of 0.01 mol/L (pH 3.5) was mixed with 1 g of an L-ascorbic acid solution having a concentration of 0.014 mol/L. When 1 g of this mixed solution was transferred to a 15-ml container and brought into contact with air, the solution included 14% of oxidized PQQ (pH 3). After this oxidized PQQ-containing reduced PQQ was left at 30° C. for one week, 18% of oxidized PQQ was included.

[2] = Non-patent document 3; cited from earlier work

O=C(O)c1cc(C(=O)O)c2c(n1)c(O)c(O)c1cc(C(=O)O)[nH]c12 [reduced PQQ, reduced pyrroloquinoline quinone]
time in which all the reduced form was converted to the oxidized form ([1]; Comparative Example 3: solid washed with water, L-ascorbic acid removed, pH adjusted to 7 with aqueous sodium hydroxide): 30 min | state of the reduced form after storage ([1]; Example 7: aqueous reaction solution, pH 2, at least 15-fold moles of L-ascorbic acid present, stored at room temperature for one week): maintained in the reduced state | oxidized PQQ included ([1]; Example 8: 0.01 mol/L PQQ disodium + 0.014 mol/L L-ascorbic acid mixed solution, pH 3, brought into contact with air, before storage): 14% | oxidized PQQ included ([1]; Example 8: same solution after being left at 30° C. for one week): 18% | antioxidative activity compared with ascorbic acid [2]: greater antioxidative activity than that exhibited by ascorbic acid | antioxidative activity compared with conventional PQQ [2]: extremely higher antioxidative activity than that exhibited by the conventional PQQ
